We go through 4 molecules from publication PMC5913254, “A novel in vitro metric predicts in vivo efficacy of inhaled silver-based antimicrobials in a murine Pseudomonas aeruginosa pneumonia model” (Scientific Reports, 2018).

Where “and” joins values, the source holds several entries; their conditions need not be identical. Equal values may be shown once.

Data set [1] has as its system 16HBE cells vs. PA M57-15. The data set is described as follows: Drug efficacy metric (DEM = LD50/MBC) using 16HBEs. The settings on record: 16HBE-based DEM; one-way ANOVA with Tukey's test or unpaired t-test. On the set-up: species or system human. The protocol: 16HBEs and HDFs grown to confluency (90–95%) as described above were sub-cultured, re-suspended in the appropriate medium, and seeded in wells of clear 96-well plate(s) at either 25,000 cells/well (16HBEs) or 15,000 cells/well (HDFs) with 100 µL of feeding media and incubated over 24 hours at 37 °C, 5% CO2, and 100% RH. The cells were then washed once with sterile phosphate buffered saline (PBS, pH = 7.4) and 100 µL of SCCs or the Ag-PPE-SCKs at various concentrations in OPTI-MEM® (Invitrogen) with 3.3% (v/v) DMSO, or without for the Ag-PPE-SCKs, was added to the cells. Next, 10 µL of alamarBlue® (Invitrogen) was added to each well and the plates were re-incubated for 24 h. Finally, the plates were measured for optical density at 570 and 600 nm with a spectrophotometer (POLARstar Omega, BMG Labtech or Cytation 5, BioTek). Untreated cells and media only (with alamarBlue®) were used as controls. […] The relative viabilities of the cells were determined as per the manufacturer’s instructions and using GraphPad Prism® software to generate a non-linear curve fit and interpolate the in vitro LD50 for each SCC. […] The DEM for each SCC was determined as the ratio of the molar LD50 and MBC concentrations (LD50/MBC).

Data set [2] concerns P. aeruginosa strain PA M57-15. The data set is described as follows: MIC and MBC determination, standard CLSI protocol with minor modifications. It is filed as cell-based, Pseudomonas aeruginosa. The protocol:
Pseudomonas aeruginosa isolate PA M57-15 was generously donated by Thomas Ferkol, M.D. (Washington University, St. Louis, MO). PA M57-15 was struck from frozen glycerol stocks on to tryptic soy agar plates (Remel) and incubated overnight at 37 °C in a warm room until individual colonies formed. A single colony was inoculated in 10 mL Mueller-Hinton (MH) broth, grown in a shaking incubator (37 °C, 200 rpm) to log phase (OD650 = 0.4), and utilized for experiments after appropriate dilutions. PA M57-15 bacterial suspension at OD650 = 0.4 corresponds to 2–3 × 10^8 CFU/mL, as verified by repeated serial dilution and plating.
The MIC and MBC determinations of the various SCCs and the Ag-PPE-SCK NPs were performed using a standard CLSI protocol with minor modifications. A mucoid clinical isolate of Pseudomonas aeruginosa, PA M57-15, from a cystic fibrosis patient was utilized, because we have previously studied this strain in murine models of P. aeruginosa lung infection[21],[29],[30]. PA M57-15 grown to log phase as previously described was diluted to a density of 10^6 CFU/mL in MH and added 1:1 in a 96-well plate with different concentrations of SCCs dissolved in 95:5 (v:v) DH2O:DMSO solution or the Ag-PPE-SCKs suspended in DH2O. The final SCC concentrations tested were 0.25, 0.5, 0.75, 1, 1.5, and 2 μg/mL and were increased in two-fold increments from 2 μg/mL to 32 μg/mL. The final DMSO concentrations in the wells was 2.5% (v/v) and had no impact on bacterial growth, as determined by growth in the positive control wells. […] Contents of these clear wells were streaked on agar plates and incubated for an additional 24 hours at 37 °C. […] Three technical replicates were employed for each experiment and a total of three biological replicates were performed on separate days (3 technical replicates x 3 biological replicates = 9 total replicates) to account for day-to-day variations in media, bacterial growth, compound dilutions, as well as other experimental conditions. The MIC and MBC values that were identical for at least two readings out of the three are reported.

Details of data set [3]: method as in PMID 23930200. The settings on record: radiolabelled Ag+; cited from earlier work.
The subject of data set [4] is primary tracheal epithelial cells grown at air-liquid interface. On the set-up: method as in PMID 20005242. The settings on record: higher than 16HBE; cited from earlier work.
Data set [5] has as its system Pseudomonas aeruginosa (PA M57-15). As to the kind of experiment: Histology of lungs of infected, treated mice. The settings on record: lungs at 25 hours after three treatments; for aggregate histological score: inflammation, consolidation, congestion/haemorrhage each 0 to +3, sham +6. It is filed as in vivo, mouse. On the procedure: Male C57BL/6 J mice were infected with PA M57-15 and treated with the four SCCs or vehicle as described above. At 25 hours, following three treatments, the mice were humanely euthanized by cervical dislocation following anesthetization by a ketamine/xylazine cocktail. Lungs of the mice were harvested aseptically, the lung sections fixed in 10% formalin for a minimum of 12 hours, and embedded in paraffin using an automated rapid tissue processor (Peloris-Leica Microsystems Inc., Buffalo Grove, IL). Two 5-micron thick sections were obtained from each paraffin block and stained with Haematoxylin/Eosin on an automated stainer (Symphony, Ventana-Roche, Tucson, AZ). Sections were evaluated by light microscopy (Nikon Eclipse-Ni, Nikon Instruments, Inc., Americas), scored using a semi-quantitative scale from 0 (negative), +1 (mild), +2 (moderate), and +3 (severe) for the following parameters: inflammation, consolidation, congestion/haemorrhage, and an aggregate score was calculated for each group. The presence of bacterial colonies if any was also noted. A pathologist, who was blinded to the treatment received by the mice, performed the examination and analysis of tissues. A total of two mice were used in each treatment group.

Details of data set [6]: method as in PMID 20449175. Particulars: cited from earlier work.

In general, MBC refers to the lowest tested concentration that kills the bacteria rather than only halting them. The low end stands for greater bactericidal potency, the high end for weaker bactericidal potency. The term MIC denotes the lowest concentration found to suppress growth. The low end stands for greater potency, the high end for weaker potency.

Consider `CC(=O)[O][Ag][c]1n(C)c2c(c(=O)n(C)c(=O)n2C)[n+]1C` [SCC1], for which the “DEM compared between formulations” value in data set [1] is “significantly higher DEMs than SCC23 and SCC28”. Further, in data set [2] (PA M57-15), the MBC is 1.5 µg/mL and the minimum inhibitory concentration (MIC) was found to be 0.75 µg/mL. In data set [2] (PA M57-15, molar basis), the minimal bactericidal concentration (MBC) is 4.0 µM and 4 µM; the MIC was 2.0 µM and 2 µM. In data set [3], the “accumulation in the liver” value is “minimal accumulation”. In data set [4], the “LD50 of primary cells relative to that of 16HBE” value is recorded as “about 2 log10”. In addition, in data set [5], the “bacterial colonies in lung tissue” value is recorded as “complete absence of bacterial colonies” and the aggregate histological score entry is “+4”.

As to `CC(=O)[O][Ag][c]1n(Cc2ccc3ccccc3c2)c(Cl)c(Cl)[n+]1Cc1ccc2ccccc2c1` [SCC23], in data set [2] (PA M57-15), the minimum bactericidal concentration (MBC) was determined as 1.0 µg/mL and the MIC amounted to 0.50 µg/mL. In data set [2] (PA M57-15, molar basis), the MBC came to 1.7 µM and the minimum inhibitory concentration (MIC) is 0.86 µM. Besides, in data set [5], the “bacterial colonies in lung tissue” value is reported as “bacterial colonies were not identified” and the aggregate histological score result was “+4”.

On to `CC(=O)[O][Ag][c]1n(CCCO)c(Cl)c(Cl)[n+]1C` [SCC22], for which, in data set [1], the “DEM compared between formulations” value was “significantly higher DEMs than SCC23 and SCC28”. In data set [2] (PA M57-15), the minimum bactericidal concentration (MBC) was determined as 1.0 µg/mL and the minimal inhibitory concentration (MIC) was determined as 0.75 µg/mL. In addition, in data set [2] (PA M57-15, molar basis), the MBC worked out at 2.7 µM; the MIC is 2.0 µM and 2 µM. The water solubility entry in data set [6] is on record as “up to 110 g/L”. For the same molecule, in data set [5], the “bacterial colonies in lung tissue” value was “No bacterial colonies were identified” and the aggregate histological score result was “+3”.

Take `CCCCCCn1c(Cl)c(Cl)[n+](Cc2ccc3ccccc3c2)[c]1[Ag][O]C(C)=O` [SCC28]: in data set [2] (PA M57-15), the minimum bactericidal concentration (MBC) was determined as 1.0 µg/mL and the MIC was 0.50 µg/mL. Moreover, in data set [2] (PA M57-15, molar basis), the MBC amounted to 1.9 µM and the MIC stood at 0.95 µM. In data set [5], the “bacterial colonies in lung tissue” value was “bacterial colonies were not identified” and the aggregate histological score was 4.
